Key:
[1] = molecular target: T1, Cytochrome P450 1A2 (Homo sapiens, UniProt P05177); assay: Inhibition of CYP1A2 (unknown origin); format: ADME
T1 sequence (P05177 whole entry): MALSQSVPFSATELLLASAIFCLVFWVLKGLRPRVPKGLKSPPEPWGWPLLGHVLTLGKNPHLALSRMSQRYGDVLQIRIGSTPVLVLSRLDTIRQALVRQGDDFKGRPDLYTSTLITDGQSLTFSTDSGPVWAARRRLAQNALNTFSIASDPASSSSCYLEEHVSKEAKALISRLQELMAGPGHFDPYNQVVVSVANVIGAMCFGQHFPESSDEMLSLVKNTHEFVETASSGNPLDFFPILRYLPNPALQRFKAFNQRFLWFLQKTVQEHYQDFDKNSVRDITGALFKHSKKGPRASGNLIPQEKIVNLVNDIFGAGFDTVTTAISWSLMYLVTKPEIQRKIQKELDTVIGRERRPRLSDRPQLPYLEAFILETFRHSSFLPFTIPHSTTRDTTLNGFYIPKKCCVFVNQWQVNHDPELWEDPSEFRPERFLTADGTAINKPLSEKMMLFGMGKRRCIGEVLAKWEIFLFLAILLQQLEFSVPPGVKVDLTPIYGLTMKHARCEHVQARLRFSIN

[2] = Selectivity index, ratio of IC50 for antiproliferative activity against wild type human HCT-116 cells to IC50 for antiproliferative activity against MTAP-knock out human HCT-116 cells
[3] = molecular target: Voltage-gated inwardly rectifying potassium channel KCNH2 (Homo sapiens, UniProt Q12809); assay: Inhibition of hERG; format: toxicity
Chain of Voltage-gated inwardly rectifying potassium channel KCNH2 (Q12809 whole entry): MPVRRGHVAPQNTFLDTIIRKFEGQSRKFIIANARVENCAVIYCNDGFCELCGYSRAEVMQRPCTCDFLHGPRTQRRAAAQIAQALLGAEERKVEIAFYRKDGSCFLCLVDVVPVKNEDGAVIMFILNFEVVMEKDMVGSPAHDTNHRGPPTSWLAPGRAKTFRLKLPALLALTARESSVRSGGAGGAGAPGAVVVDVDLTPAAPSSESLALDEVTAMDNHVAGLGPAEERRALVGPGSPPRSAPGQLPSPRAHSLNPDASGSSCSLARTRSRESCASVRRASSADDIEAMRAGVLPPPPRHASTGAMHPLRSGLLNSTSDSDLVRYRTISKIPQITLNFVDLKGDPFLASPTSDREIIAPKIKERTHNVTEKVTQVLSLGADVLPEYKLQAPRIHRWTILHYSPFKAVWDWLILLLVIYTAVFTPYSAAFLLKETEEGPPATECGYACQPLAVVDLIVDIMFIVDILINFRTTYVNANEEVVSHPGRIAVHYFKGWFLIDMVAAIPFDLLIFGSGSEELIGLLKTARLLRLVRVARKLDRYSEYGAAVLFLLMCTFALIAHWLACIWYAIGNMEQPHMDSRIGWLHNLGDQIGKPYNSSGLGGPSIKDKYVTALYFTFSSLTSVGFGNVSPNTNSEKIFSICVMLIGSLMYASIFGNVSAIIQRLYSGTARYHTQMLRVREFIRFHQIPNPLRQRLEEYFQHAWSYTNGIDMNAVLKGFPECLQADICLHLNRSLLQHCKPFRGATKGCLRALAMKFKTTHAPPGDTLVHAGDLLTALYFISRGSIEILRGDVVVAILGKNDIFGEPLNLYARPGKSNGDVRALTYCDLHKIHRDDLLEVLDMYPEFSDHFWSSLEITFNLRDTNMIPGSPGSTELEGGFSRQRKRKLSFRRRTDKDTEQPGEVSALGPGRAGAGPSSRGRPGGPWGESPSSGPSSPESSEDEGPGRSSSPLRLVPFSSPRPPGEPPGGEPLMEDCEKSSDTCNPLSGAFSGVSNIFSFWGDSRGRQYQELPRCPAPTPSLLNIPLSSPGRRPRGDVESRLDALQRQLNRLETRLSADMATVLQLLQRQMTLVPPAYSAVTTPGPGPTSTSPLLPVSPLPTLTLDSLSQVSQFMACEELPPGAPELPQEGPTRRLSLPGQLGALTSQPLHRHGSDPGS

[4] = Dissociation constant, pKa of compound; format: physicochemical
[5] = Plasma protein binding in rat assessed as unbound fraction; format: ADME, cell-free
[6] = Cmax in male Sprague-Dawley rat at 10 mg/kg, po measured upto 24 hrs upto 24 hrs by LC-MS/MS analysis; format: ADME, organism-based; conditions: in vivo
[7] = Plasma protein binding in dog assessed as unbound fraction; format: ADME, cell-free, Canis lupus familiaris
[8] = molecular target: T2, S-adenosylmethionine synthase isoform type-2 (Homo sapiens, UniProt P31153); assay: Inhibition of MAT2A in MTAP-knock out human HCT-116 cells assessed as inhibition of PRMT5-mediated symmetric […]-arginine (SDMA) level; format: cell-based
T2 sequence (P31153 whole entry, canonical isoform): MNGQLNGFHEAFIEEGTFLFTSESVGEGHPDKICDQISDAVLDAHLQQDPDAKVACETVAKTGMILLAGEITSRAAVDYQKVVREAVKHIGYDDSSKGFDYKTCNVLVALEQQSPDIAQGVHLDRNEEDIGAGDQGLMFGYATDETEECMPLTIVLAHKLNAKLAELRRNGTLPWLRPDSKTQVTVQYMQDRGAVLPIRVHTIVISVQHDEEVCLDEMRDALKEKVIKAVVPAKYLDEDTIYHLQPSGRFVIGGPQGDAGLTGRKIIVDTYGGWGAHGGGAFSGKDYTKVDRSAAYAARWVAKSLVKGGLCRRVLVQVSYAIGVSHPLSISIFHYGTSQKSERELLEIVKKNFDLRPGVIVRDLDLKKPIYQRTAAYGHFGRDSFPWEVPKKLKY

[9] = Microsomal metabolic stability in mouse liver microsomes assessed as clearance; format: ADME, Microsome; conditions: read-out: CLH
[10] = molecular target: Cytochrome P450 3A4 (Homo sapiens, UniProt P08684); assay: Inhibition of CYP3A4 (unknown origin); format: ADME
Chain of Cytochrome P450 3A4 (P08684 whole entry): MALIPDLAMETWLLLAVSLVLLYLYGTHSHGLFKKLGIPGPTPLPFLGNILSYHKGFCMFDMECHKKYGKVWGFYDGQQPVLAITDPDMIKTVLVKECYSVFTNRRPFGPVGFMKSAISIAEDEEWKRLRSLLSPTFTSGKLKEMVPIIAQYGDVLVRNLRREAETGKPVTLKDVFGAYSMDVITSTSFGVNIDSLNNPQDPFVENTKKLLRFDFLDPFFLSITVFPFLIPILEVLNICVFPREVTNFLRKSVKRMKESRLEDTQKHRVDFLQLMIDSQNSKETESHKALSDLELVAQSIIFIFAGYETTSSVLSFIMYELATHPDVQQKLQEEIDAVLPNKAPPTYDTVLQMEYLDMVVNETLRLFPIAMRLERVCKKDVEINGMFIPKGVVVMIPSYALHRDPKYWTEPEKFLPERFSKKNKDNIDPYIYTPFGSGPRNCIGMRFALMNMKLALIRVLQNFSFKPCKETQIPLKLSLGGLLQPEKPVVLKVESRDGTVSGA

[11] = Plasma protein binding in human assessed as unbound fraction; format: ADME, cell-free
[12] = Microsomal metabolic stability in human liver microsomes assessed as half life; format: ADME, Microsome
[13] = AUCinf in male ICR mouse at 10 mg/kg, po measured upto 24 hrs by LC-MS/MS analysis; format: ADME, organism-based; conditions: in vivo
[14] = Genotoxicity in Salmonella typhimurium TA100; format: toxicity; conditions: salmonella enterica subsp. enterica serovar typhimurium
[15] = Microsomal metabolic stability in mouse liver microsomes assessed as half life; format: ADME, Microsome
[16] = Microsomal metabolic stability in Cynomolgus monkey liver microsomes assessed as half life; format: ADME, Macaca fascicularis, Microsome
[17] = AUCinf in beagle dog at 10 mg/kg, po measured upto 24 hrs upto 24 hrs by LC-MS/MS analysis; format: ADME, organism-based, Canis lupus familiaris; conditions: in vivo
[18] = Efflux ratio of apparent permeability in human Caco-2 cells; format: ADME, cell-based
[19] = Genotoxicity in Salmonella typhimurium TA97a; format: toxicity; conditions: salmonella enterica subsp. enterica serovar typhimurium
[20] = Hepatic metabolic stability in human hepatocyte assessed as half life; format: ADME, cell-based; conditions: hepatocytes
[21] = Genotoxicity in Salmonella typhimurium TA102; format: toxicity; conditions: salmonella enterica subsp. enterica serovar typhimurium
[22] = Microsomal metabolic stability in dog liver microsomes assessed as half life; format: ADME, Canis lupus familiaris, Microsome
[23] = Hepatic metabolic stability in dog hepatocyte assessed as half life; format: ADME, cell-based, Canis lupus familiaris; conditions: hepatocytes
[24] = Oral bioavailability in male Sprague-Dawley rat at 10 mg/kg measured upto 24 hrs upto 24 hrs by LC-MS/MS analysis; format: ADME, organism-based; conditions: in vivo
[25] = AUC (0 to infinity) in male ICR mouse at 10 mg/kg, po and 2 mg/kg, iv measured upto 24 hrs; format: ADME, organism-based; conditions: in vivo
[26] = molecular target: T3, UDP-glucuronosyltransferase 1A1 (Homo sapiens, UniProt P22309); assay: Inhibition of UGT1A1 (unknown origin)
T3 sequence (P22309 whole entry): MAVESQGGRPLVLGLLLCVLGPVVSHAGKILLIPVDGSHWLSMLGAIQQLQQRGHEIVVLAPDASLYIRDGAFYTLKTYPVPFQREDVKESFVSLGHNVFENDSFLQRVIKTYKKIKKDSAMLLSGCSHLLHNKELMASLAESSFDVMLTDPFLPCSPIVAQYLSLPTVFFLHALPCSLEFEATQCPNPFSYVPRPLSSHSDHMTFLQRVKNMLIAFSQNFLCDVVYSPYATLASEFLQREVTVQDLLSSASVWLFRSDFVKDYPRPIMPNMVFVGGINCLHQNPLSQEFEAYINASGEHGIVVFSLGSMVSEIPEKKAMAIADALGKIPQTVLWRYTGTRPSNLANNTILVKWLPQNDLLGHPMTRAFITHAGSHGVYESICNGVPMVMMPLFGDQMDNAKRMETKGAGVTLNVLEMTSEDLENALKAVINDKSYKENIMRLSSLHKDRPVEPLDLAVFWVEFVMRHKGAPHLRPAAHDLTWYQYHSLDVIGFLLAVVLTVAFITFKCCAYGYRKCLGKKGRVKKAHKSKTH

[27] = Hepatic metabolic stability in Cynomolgus monkey hepatocyte assessed as half life; format: ADME, cell-based, Macaca fascicularis; conditions: hepatocytes
[28] = Protein binding in mouse brain assessed as unbound fraction; format: ADME, tissue-based
[29] = molecular target: T2, S-adenosylmethionine synthase isoform type-2; assay: Inhibition of MAT2A (unknown origin) assessed as release of inorganic phosphate using ATP/L-methionine pre-incubated for 30 mins followed by substrate addition measured after 2.5 hrs by colorimetric assay
[30] = Plasma protein binding in mouse assessed as unbound fraction; format: ADME, cell-free
[31] = molecular target: T4, Cytochrome P450 2C8 (Homo sapiens, UniProt P10632); assay: Inhibition of CYP2C8 (unknown origin); format: ADME
T4 sequence (P10632 whole entry): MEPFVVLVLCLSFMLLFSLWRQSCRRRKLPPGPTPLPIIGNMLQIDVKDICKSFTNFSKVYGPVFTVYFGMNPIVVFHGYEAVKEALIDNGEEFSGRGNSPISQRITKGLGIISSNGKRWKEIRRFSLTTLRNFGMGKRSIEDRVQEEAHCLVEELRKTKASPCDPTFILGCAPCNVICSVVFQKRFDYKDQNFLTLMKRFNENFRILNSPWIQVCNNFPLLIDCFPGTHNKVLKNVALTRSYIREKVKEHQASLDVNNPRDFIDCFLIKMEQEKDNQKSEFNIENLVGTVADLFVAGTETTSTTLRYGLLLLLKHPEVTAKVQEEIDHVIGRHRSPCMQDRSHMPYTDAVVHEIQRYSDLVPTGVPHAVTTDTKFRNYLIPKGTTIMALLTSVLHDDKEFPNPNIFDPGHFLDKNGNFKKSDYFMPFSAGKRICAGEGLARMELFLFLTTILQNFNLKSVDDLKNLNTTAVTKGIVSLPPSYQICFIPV

[32] = Volume of distribution at steady state in male Sprague-Dawley rat at 2 mg/kg, iv measured upto 24 hrs upto 24 hrs by LC-MS/MS analysis; format: ADME, organism-based; conditions: in vivo

Row | IC50 [1] [µM] | pKa [4] | fraction unbound [5] | Cmax [6] [ng/mL] | fraction unbound [7] | IC50 [8] [nM] | CLint scaled [9] [mL/min/kg] | IC50 [10] [µM] | fraction unbound [11] | half-life [12] [min] | AUC(0-inf) [13] [ng·h/mL] | half-life [15] [min] | half-life [16] [min] | AUC(0-inf) [17] [ng·h/mL] | efflux ratio [18] | half-life [20] [min] | Compound | Selectivity Index [2] | IC50 [3] [µM] | Activity [14] | Activity [19] | further results
1 | > 10 | 4.7 | 0.412 | 8520 | 0.497 | 1 | < 29.3 | > 10 | 0.758 | > 186 | 35800 | > 186 | > 186 | 13600 | 1.95 | > 217 | [2H]C([2H])([2H])NC1=NC(=O)[C@]2(CCc3ncccc32)c2cc(C(F)(F)F)ccc21 | 20 | > 40 | Non-toxic | Non-toxic | Activity [21]: Non-toxic; half-life [22]: > 186 min; half-life [23]: > 217 min; F ([24]; po, 10 mg/kg, 24 h): 171%; AUC(0-inf) [25]: 39600 ng·h/mL; IC50 [26]: > 50 µM; half-life [27]: > 217 min; fraction unbound [28]: 0.113; IC50 [29]: 4 nM; fraction unbound [30]: 0.276; IC50 [31]: > 10 µM; Vdss [32]: 1.84 L/kg
2 | > 10 | 4.9 | 0.373 | 6100 | 0.456 | 2 | 37 | > 10 | 0.676 | > 186 | 24900 | > 148 | > 186 | 12300 | 5.27 | > 217 | [2H]C([2H])([2H])NC1=NC(=O)[C@]2(CCc3ncccc32)c2cc(C(C)(F)F)ccc21 | >181 | > 40 | Non-toxic | Non-toxic | Activity [21]: Non-toxic; half-life [22]: > 186 min; half-life [23]: > 217 min; bioavailability ([24]; male, Sprague-Dawley): 135%; AUC(0-inf) [25]: 24900 ng·h/mL; IC50 [26]: > 50 µM; half-life [27]: > 217 min; fraction unbound [28]: 0.148; IC50 [29]: 4 nM; fraction unbound [30]: 0.345; IC50 [31]: > 10 µM; Vdss [32]: 1.95 L/kg

Source: ChEMBL document CHEMBL6121044, “Discovery of Novel Spirocyclic MAT2A Inhibitors Demonstrating High In Vivo Efficacy in MTAP-Null Xenograft Models” (J Med Chem, 2025)
